The values below come from US20020103136A1, “Conjugates useful in the treatment of prostate cancer” (priority 1998, published 2002).

For experiment [1], the system named is Colo320DM cells (also designated C320). The experiment in a line: In vitro cytotoxicity, Alamar Blue assay, Colo320DM cells. The class given is cell-based. Particulars: Table 3, value in parentheses, TFA salt unless otherwise indicated, read-out: Cell Kill in 72 HRS EC5O, Colo320DM. Here is the method: (§1) The cytotoxicities of the vinca alkaloid derivatives, prepared as described in Example 1, and the cleaveable oligopeptide-vinca drug conjugates, prepared as described in Examples 2 and 2A, against a line of cells which is known to be killed by unmodified vinca drug was assessed with an Alamar Blue assay. Specifically, cell cultures of LNCap prostate tumor cells, Colo320DM cells (also designated C320), T24 bladder carcinoma cells or T47D breast carcinoma cells in 96 well plates was diluted with medium containing various concentrations of a given conjugate (final plate well volume of 200 μl). The cells were incubated for 3 days at 37° C., 20 μl of Alamar Blue is added to the assay well. The cells were further incubated and the assay plates were read on a EL-310 ELISA reader at the dual wavelengths of 570 and 600 nm at 4 and 7 hours after addition of Alamar Blue. Relative percentage viability at the various concentration of conjugate tested was then calculated versus control (no cytotoxic agent or conjugate) cultures. Unless otherwise indicated, the TFA salt of the cytotoxic agent and the acetate salt of the conjugate were tested.
(Alamar Blue is a resazurin reagent that responds to reducing activity.)

The test system of experiment [2] is LNCap prostate tumor cells. The experiment can be described thus: In vitro cytotoxicity, Alamar Blue assay, LNCaP cell kill in 72 hrs. The class given is cell-based. The following applies: Table 3, 3 days, TFA salt of cytotoxic agent unless otherwise indicated, read-out: LNCaP Cell Kill in 72 HRS EC5O. Here is the method: as §1

On to `CC[C@]1(O)C[C@@H]2CN(CCc3c([nH]c4ccccc34)[C@@](C(=O)OC)(c3cc4c(cc3OC)N(C)[C@H]3[C@@](O)(C(=O)N[C@H](CO)Cc5ccccc5)[C@H](O)[C@]5(CC)C=CCN6CC[C@]43[C@@H]65)C2)C1` [L-phenylalaninol-(dAc)-VIN], for which the results for the EC50 in experiment [1] and in experiment [2] were 3500 nM and 500 nM, respectively. For the molecule `CC[C@]1(O)C[C@@H]2CN(CCc3c([nH]c4ccccc34)[C@@](C(=O)OC)(c3cc4c(cc3OC)N(C)[C@H]3[C@@](O)(C(=O)N[C@H](CO)C(C)C)[C@H](O)[C@]5(CC)C=CCN6CC[C@]43[C@@H]65)C2)C1` [L-Valinol-(dAc)-VIN], the EC50 came out at 800 nM in experiment [1] and 400 nM in experiment [2].

As to `CC[C@]1(O)C[C@@H]2CN(CCc3c([nH]c4ccccc34)[C@@](C(=O)OC)(c3cc4c(cc3OC)N(C)[C@H]3[C@@](O)(C(=O)N[C@H](CO)CC(C)C)[C@H](O)[C@]5(CC)C=CCN6CC[C@]43[C@@H]65)C2)C1` [L-leucinol-(dAc)-VIN], the EC50 in experiment [1] was determined as 2000 nM; in experiment [2], 700 nM. `CCC1(O)CC2CN(CCc3c([nH]c4ccccc34)C(C(=O)OC)(c3cc4c(cc3OC)N(C)C3C(O)(C(=O)NC(CO)Cc5c[nH]c6ccccc56)C(O)C5(CC)C=CCN6CCC43C65)C2)C1` (stereo not drawn) [tryptophanol-(dAc)-VIN]: the EC50 worked out at 2900 nM in experiment [1] and 600 nM in experiment [2]. Consider `CCC(CO)NC(=O)[C@@]1(O)[C@H](O)[C@]2(CC)C=CCN3CC[C@@]4(c5cc([C@@]6(C(=O)OC)C[C@H]7CN(CCc8c6[nH]c6ccccc86)C[C@](O)(CC)C7)c(OC)cc5N(C)[C@@H]14)[C@@H]32` (stereo partly drawn) [2-Aminobutanol-(dAc)-VIN], for which the EC50 was 7100 nM in experiment [1] and 2900 nM in experiment [2]. The matching figures for `CCC1(O)CC2CN(CCc3c([nH]c4ccccc34)C(C(=O)OC)(c3cc4c(cc3OC)N(C)C3C(O)(C(=O)NC(C)C(O)c5ccccc5)C(O)C5(CC)C=CCN6CCC43C65)C2)C1` (single isomer, unassigned; isomer a) [norephedrine-(dAc)-VIN, isomer A]: 3000 nM and 3000 nM. Regarding `CC[C@]1(O)C[C@@H]2CN(CCc3c([nH]c4ccccc34)[C@@](C(=O)OC)(c3cc4c(cc3OC)N(C)[C@H]3[C@@](O)(C(=O)N5CCCC(O)C5)[C@H](O)[C@]5(CC)C=CCN6CC[C@]43[C@@H]65)C2)C1` (single isomer, unassigned; isomer a) [3-hydroxyl-piperidine-(dAc)-VIN, isomer A], the EC50 in experiment [1] and in experiment [2] was 500 nM each time.

`CC[C@]1(O)C[C@@H]2CN(CCc3c([nH]c4ccccc34)[C@@](C(=O)OC)(c3cc4c(cc3OC)N(C)[C@H]3[C@@](O)(C(=O)NC(CO)c5ccccc5)[C@H](O)[C@]5(CC)C=CCN6CC[C@]43[C@@H]65)C2)C1` (stereo partly drawn) [Phenylglyinol-(dAc)-VIN]: the EC50 was 4800 nM in experiment [1] and 700 nM in experiment [2].

Consider `CC[C@]1(O)C[C@@H]2CN(CCc3c([nH]c4ccccc34)[C@@](C(=O)OC)(c3cc4c(cc3OC)N(C)[C@H]3[C@@](O)(C(=O)NC5CCCCC5O)[C@H](O)[C@]5(CC)C=CCN6CC[C@]43[C@@H]65)C2)C1` (single isomer, unassigned; isomer b) [(trans-2-hydroxyl)cyclohexylamino-(dAc)-VIN, Isomer B], for which the EC50 in experiment [1] and in experiment [2] was 800 nM in each case.

Take `CCC1(O)CC2CN(CCc3c([nH]c4ccccc34)C(C(=O)OC)(c3cc4c(cc3OC)N(C)C3C(O)(C(=O)NC(C)C(O)c5ccccc5)C(O)C5(CC)C=CCN6CCC43C65)C2)C1` (single isomer, unassigned; isomer b) [norephedrine-(dAc)-VIN, isomer B]: the EC50 in experiment [1] stood at 400 nM; in experiment [2], 200 nM. With `CCC1(O)CC2CN(CCc3c([nH]c4ccccc34)C(C(=O)OC)(c3cc4c(cc3OC)N(C)C3C(O)(C(=O)N5CCC(O)CC5)C(O)C5(CC)C=CCN6CCC43C65)C2)C1` (stereo not drawn) [4-hydroxylpiperidine-(dAc)-VIN], the values for the EC50 in experiment [1] and in experiment [2] were 800 nM and 200 nM, respectively. On to `CC[C@]1(O)C[C@@H]2CN(CCc3c([nH]c4ccccc34)[C@@](C(=O)OC)(c3cc4c(cc3OC)N(C)[C@H]3[C@@](O)(C(=O)NC(C)C(O)C5CCCCC5)[C@H](O)[C@]5(CC)C=CCN6CC[C@]43[C@@H]65)C2)C1` (single isomer, unassigned; isomer b) [(3-cyclohexyl-3-hydroxyl-2-propylaminol)-(dAc)-VIN isomer B], for which the values for the EC50 in experiment [1] and in experiment [2] were 800 nM and 1200 nM, respectively. As to `CCC1(O)CC2CN(CCc3c([nH]c4ccccc34)C(C(=O)OC)(c3cc4c(cc3OC)N(C)C3C(O)(C(=O)NC(C)C(O)c5cccc(OC)c5)C(O)C5(CC)C=CCN6CCC43C65)C2)C1` (stereo not drawn) [3-methoxy-norephedrine-(dAc)-VIN], the EC50 came out at 5100 nM in experiment [1] and 1800 nM in experiment [2]. For the molecule `CC[C@]1(O)C[C@@H]2CN(CCc3c([nH]c4ccccc34)[C@@](C(=O)OC)(c3cc4c(cc3OC)N(C)[C@H]3[C@@](O)(C(=O)N5CCC(O)C5)[C@H](O)[C@]5(CC)C=CCN6CC[C@]43[C@@H]65)C2)C1` (stereo partly drawn) [3-hydroxylpyrrolidine-(dAc)-VIN], the results for the EC50 in experiment [1] and in experiment [2] were 1500 nM and 200 nM, respectively. As for `CC[C@]1(O)C[C@@H]2CN(CCc3c([nH]c4ccccc34)[C@@](C(=O)OC)(c3cc4c(cc3OC)N(C)[C@H]3[C@@](O)(C(=O)NC(C)C(O)C5CCCCC5)[C@H](O)[C@]5(CC)C=CCN6CC[C@]43[C@@H]65)C2)C1` (single isomer, unassigned; isomer a) [(3-cyclohexyl-3-hydroxyl-2-propylaminol)-(dAc)-VIN isomer A], the values for the EC50 in experiment [1] and in experiment [2] were 500 nM and 300 nM, respectively. Regarding `CC[C@H](C)[C@@H](CO)NC(=O)[C@@]1(O)[C@H](O)[C@]2(CC)C=CCN3CC[C@@]4(c5cc([C@@]6(C(=O)OC)C[C@H]7CN(CCc8c6[nH]c6ccccc86)C[C@](O)(CC)C7)c(OC)cc5N(C)[C@@H]14)[C@@H]32` [L-isoleucinol-(dAc)-VIN], the EC50 was determined as 1700 nM in experiment [1] and 900 nM in experiment [2].

Turning to `CC[C@]1(O)C[C@@H]2CN(CCc3c([nH]c4ccccc34)[C@@](C(=O)OC)(c3cc4c(cc3OC)N(C)[C@H]3[C@@](O)(C(=O)NC(CO)CO)[C@H](O)[C@]5(CC)C=CCN6CC[C@]43[C@@H]65)C2)C1` [Serinol-(dAc)-VIN], the results for the EC50 in experiment [1] and in experiment [2] were 8300 nM and 800 nM, respectively.

Turning to `CC[C@]1(O)C[C@@H]2CN(CCc3c([nH]c4ccccc34)[C@@](C(=O)OC)(c3cc4c(cc3OC)N(C)[C@H]3[C@@](O)(C(=O)NC(c5ccccc5)C(O)c5ccccc5)[C@H](O)[C@]5(CC)C=CCN6CC[C@]43[C@@H]65)C2)C1` (stereo partly drawn) [1,2-diPhenylethanolamino-(dAc)-VIN], the EC50 in experiment [1] was 8900 nM; in experiment [2], 2200 nM. Regarding `CC[C@]1(O)C[C@@H]2CN(CCc3c([nH]c4ccccc34)[C@@](C(=O)OC)(c3cc4c(cc3OC)N(C)[C@H]3[C@@](O)(C(=O)NCC5(O)CCCCC5)[C@H](O)[C@]5(CC)C=CCN6CC[C@]43[C@@H]65)C2)C1` [1-hydroxylcyclohexylmethyamino-(dAc)-VIN], the EC50 worked out at 15800 nM in experiment [1] and 500 nM in experiment [2]. For the molecule `CC[C@]1(O)C[C@@H]2CN(CCc3c([nH]c4ccccc34)[C@@](C(=O)OC)(c3cc4c(cc3OC)N(C)[C@H]3[C@@](O)(C(=O)N5CCCC(O)C5)[C@H](O)[C@]5(CC)C=CCN6CC[C@]43[C@@H]65)C2)C1` (single isomer, unassigned; isomer b) [3-hydroxyl-piperidine-(dAc)-VIN, isomer B], the EC50 in experiment [2] is 500 nM.
